From US20250282734A1 (Bayer Aktiengesellschaft, priority 2021, published 2025)
Where two headings read alike, the source gives them in different places. Marks after values point to notes of the source that are not given here.

Legend:
[1] = Dissolution profile, flow through cell in FeSSIF / FaSSIF (Example 16); assay type: physicochemical; conditions: micronized samples
Procedure: Prior to the measurements, the samples were micronized using a jet mill (MC DECJET 30) under nitrogen, with a pressure of 4.5 Bar for the injector and 4.0 Bar grinding pressure.
Dissolution rates of the drug substance were then determined using a flow through cell (FTC) from Sotax. All experiments were conducted in triplicates.
Then, the respective medium (FaSSIF or FeSSIF) was pumped through the cell with a pump rate of 2 mL/min for a total time of 14 minutes, resulting in a total volume of 28 mL. This volume was collected in time increments of 2 minutes, leading to 7 collected fractions with 4 mL each. The drug substance concentration of each fraction was determined by HPLC (external standard).

[2] = Hygroscopy, dynamic vapour sorption (DVS) isotherms (Example 15); assay type: physicochemical; conditions: for DVS Dm @ 30% R.H. (Sorption) / DVS Dm @ 50% R.H. (Sorption) / DVS Dm @ 80% R.H. (Sorption): summarized results
Procedure: Water sorption isotherms were determined using a DVS Resolution gravimetric sorption analyzer (London, UK), or a DVS Intrinsic instrument (Surface measurement Systems). The sample was dried for 1000 minutes at 0% relative humidity (R.H.). Afterwards the dry weight was recorded. […] The equilibrium criterion for each relative humidity set point was 0.002% per minute relative mass change as a function of time.

[3] = Solubility of cholinate vs free acid and other salts, shake-flask method (Example 14); assay type: physicochemical
Procedure: Preparation of FaSSIF (Fasted State Simulated Intestinal Fluid) blank solution: 4.2 g NaOH, 44.7 g NaH2PO4*2 H2O, and 61.86 g NaCl were dissolved in approximately 9.5 L demineralized water. Then, the pH of this solution was adjusted to 6.50+/−0.05 using HCl or NaOH, respectively. In the last step, the final volume was adjusted to 10.0 L by the addition of demineralized water.
Preparation of the final FaSSIF solution: 4.48 g SIF (Simulated Intestinal Fluids) powder (provider: biorelevant.com, Product code: FFF01 (May 2022)) were dissolved in approximately 500 mL FaSSIF blank solution, then the final volume was adjusted to 2.0 L by the addition of FaSSIF blank solution. After 2 hours, the solution was considered to be ready to use and was used within 48 hours.
Preparation of FeSSIF (Fed State Simulated Intestinal Fluid) blank solution: 40.4 g NaOH, 118.74 g NaCl, and 82.4 mL glacial acetic acid were dissolved in approximately 9.5 L demineralized water. Then, the pH of this solution was adjusted to 5.00+/−0.05 using HCl or NaOH, respectively. In the last step, the final volume was adjusted to 10.0 L by the addition of demineralized water.
Preparation of the final FeSSIF solution: 22.4 g SIF powder (provider: biorelevant.com, Product code: FFF01 (May 2022)) were dissolved in approximately 500 mL FeSSIF blank solution, then the final volume was adjusted to 2.0 L by the addition of FeSSIF blank solution. The solution was considered to be ready to use immediately after manufacturing and was used within 48 hours.

[4] = Solubility free acid vs. salt, shake-flask method (Example 12); assay type: physicochemical
[5] = Determination of exposure in rat after intragastric administration (Example 13); assay type: in vivo; conditions: for AUC(0-t): female, plasma, po, read-out: AUC(0-tlast); for AUC(0-t) / AUC(0-tlast)norm / AUC(0-tlast): free acid in rat plasma
Procedure: Determination of exposure after intragastric application of test compounds was performed in female conscious rats with a body weight of 0.2 kg (minimum) to 0.25 kg (maximum). The test compounds were applied as bolus via intragastric probe to unfed female rats in solution or suspension in the vehicle ethanol/solutol/water (v/v/v 10/40/50).
At the indicated timepoints between 8 min and 24 h after dosing, 150 μl blood were sampled via a catheter from the vena jugularis. The samples were treated with K-EDTA as anticoagulant and stored cooled until further processing (refrigerator, 4° C.). The samples were centrifuged (15 min, 3000 rpm), then an aliquot of 100 μL was taken from the supernatant (plasma), precipitated by addition of 400 μL cold acetonitrile or methanol (abs.) and frozen at −20° C. over night. The samples were centrifuged (15 min, 3000 rpm), then 150 μL of the clear supernatant were taken for analytical testing. Analytics were performed using an Agilent 1200 HPLC-system with LCMS/MS detection.
The applied dose of cholinate according to the invention was adjusted as compared to free acid according to the difference in molecular weight. The resulting equivalent doses were used for comparison.

[6] = Thermodynamic stability of polymorphic form; assay type: physicochemical
[7] = 0% Relative humidity, listed as Cholinate Form A
[8] = 10% Relative humidity, listed as Cholinate Form A
[9] = 20% Relative humidity, listed as Cholinate Form A
[10] = 30% Relative humidity, listed as Cholinate Form A
[11] = 40% Relative humidity, listed as Cholinate Form A
[12] = 50% Relative humidity, listed as Cholinate Form A
[13] = 60% Relative humidity, listed as Cholinate Form A
[14] = 70% Relative humidity, listed as Cholinate Form A
[15] = 80% Relative humidity, listed as Cholinate Form A
[16] = 90% Relative humidity, listed as Cholinate Form A
[17] = 95% Relative humidity, listed as Cholinate Form A

O=C([O-])c1cc(NC(=O)C2(c3ccc(C(F)(F)F)cc3F)CC2)ccc1-c1cnn(C2CCC2)c1.[Na+] [Sodium salt, Sodium 2-(1-cyclobutyl-1H-pyrazol-4-yl)-5-[({1-[2-fluoro-4-(trifluoromethyl)phenyl]cyclopropyl}carbonyl)amino]benzoate]
Dissolution profile, comparison in words [1]: no differences
Change in mass [%], Desorption ([2]; 0% Relative humidity): −3.95%
Change in mass [%], Sorption ([2]; 0% Relative humidity): 0.00%
Change in mass [%], Desorption ([2]; 10% Relative humidity): −0.87%
Change in mass [%], Sorption ([2]; 10% Relative humidity): 0.85%
Change in mass [%], Desorption ([2]; 20% Relative humidity): 0.84%
Change in mass [%], Sorption ([2]; 20% Relative humidity): 1.36%
Change in mass [%], Desorption ([2]; 30% Relative humidity): 1.91%
Change in mass [%], Sorption ([2]; 30% Relative humidity): 1.92%
Change in mass [%], Desorption ([2]; 40% Relative humidity): 3.33%
Change in mass [%], Sorption ([2]; 40% Relative humidity): 2.95%
Change in mass [%], Desorption ([2]; 50% Relative humidity): 5.07%
Change in mass [%], Sorption ([2]; 50% Relative humidity): 7.77%
Change in mass [%], Desorption ([2]; 60% Relative humidity): 7.95%
Change in mass [%], Sorption ([2]; 60% Relative humidity): 11.23%
Change in mass [%], Desorption ([2]; 70% Relative humidity): 11.79%
Change in mass [%], Sorption ([2]; 70% Relative humidity): 15.05%
Change in mass [%], Desorption ([2]; 80% Relative humidity): 16.87%
Change in mass [%], Sorption ([2]; 80% Relative humidity): 20.22%
Change in mass [%], Desorption ([2]; 90% Relative humidity): 26.84%
Change in mass [%], Sorption ([2]; 90% Relative humidity): 30.67%
Change in mass [%], Desorption ([2]; 95% Relative humidity): 42.62%
Change in mass [%], Sorption ([2]; 95% Relative humidity): 42.62%
DVS Dm @ 30% R.H. (Sorption) [2]: 1.9%
DVS Dm @ 50% R.H. (Sorption) [2]: 5.1%
DVS Dm @ 80% R.H. (Sorption) [2]: 20.2%
solubility ([3]; Buffer pH 4.5, 25° C.): 3 mgfree acid/L
solubility ([3]; Buffer pH 7, 25° C.): 421 mgfree acid/L
solubility ([3]; Buffer pH 8, 25° C.): 5075 mgfree acid/L
solubility ([3]; FaSSIF (37° C.) (Fasted State Simulated Intestinal Fluid)): 426 mgfree acid/L
solubility ([3]; FeSSIF (37° C.) (Fed State Simulated Intestinal Fluid)): 14 mgfree acid/L
solubility ([3]; Water, 25° C.): 6176 mgfree acid/L

O=C(O)c1cc(NC(=O)C2(c3ccc(C(F)(F)F)cc3F)CC2)ccc1-c1cnn(C2CCC2)c1 [cholinate, 2-hydroxy-N,N,N-trimethylethanaminium 2-(1-cyclobutyl-1H-pyrazol-4-yl)-5-[({1-[2-fluoro-4-(trifluoromethyl)phenyl]cyclopropyl}carbonyl)amino]benzoate]
Dissolution profile, comparison in words [1]: better dissolution profile than the other salts
Change in mass [%], Desorption [2, 7]: −0.14%
Change in mass [%], Sorption [2, 7]: 0.00%
Change in mass [%], Desorption [2, 8]: 2.50%
Change in mass [%], Sorption [2, 8]: 0.36%
Change in mass [%], Desorption [2, 9]: 3.59%
Change in mass [%], Sorption [2, 9]: 0.56%
Change in mass [%], Desorption [2, 10]: 5.08%
Change in mass [%], Sorption [2, 10]: 0.75%
Change in mass [%], Desorption [2, 11]: 6.98%
Change in mass [%], Sorption [2, 11]: 0.95%
Change in mass [%], Desorption [2, 12]: 9.30%
Change in mass [%], Sorption [2, 12]: 1.21%
Change in mass [%], Desorption [2, 13]: 12.14%
Change in mass [%], Sorption [2, 13]: 1.61%
Change in mass [%], Desorption [2, 14]: 16.02%
Change in mass [%], Sorption [2, 14]: 2.11%
Change in mass [%], Desorption [2, 15]: 21.87%
Change in mass [%], Sorption [2, 15]: 3.05%
Change in mass [%], Desorption [2, 16]: 33.33%
Change in mass [%], Sorption [2, 16]: 18.30%
Change in mass [%], Desorption [2, 17]: 46.21%
Change in mass [%], Sorption [2, 17]: 46.21%
Hygroscopicity, comparison in words ([2]; in particular at 30-50% relative humidity): less hygroscopic than the other salts
DVS Dm @ 30% R.H. (Sorption) [2]: 0.8%
DVS Dm @ 50% R.H. (Sorption) [2]: 1.2%
DVS Dm @ 80% R.H. (Sorption) [2]: 3.1%
solubility ([4]; 0.1M HCl, 25 °C, simulated gastric fluid, thermodynamic from solid, 0.1M HCl, 25° C., read-out: Solubility): < 1 µg/mL
solubility ([4]; Acetone, 25° C.): 412 µg/mL
solubility ([4]; Acetonitrile, 25° C.): 3797 µg/mL
solubility ([4]; Ethanol, 25° C.): >12500 µg/mL
solubility ([4]; PEG 400, 25° C.): 19159 µg/mL
solubility ([4]; Phosphate buffer pH 8, 25° C.): 10798 µg/mL
solubility ([4]; Solutol/Ethanol/Water (40/10/50 V/V/V), 25° C.): >35000 µg/mL
solubility ([4]; Water, 25° C., stirred overnight): >12500** mg/L
solubility ([4]; acetate buffer, 25 °C, pH 4.5, aqueous buffer, thermodynamic from solid, Acetate buffer pH 4.5, 25° C., read-out: Solubility): 2 µg/mL
pH of the clear solution ([4]; solubility test in water, pH of water before stirring: 5.57): **pH of the clear solution: 8.32, pH of water before stirring: 5.57
aqueous solubility, comparison in words ([3]; aqueous solvents, pH 4.5 and above, FeSSIF and FaSSIF): higher solubility than the amorphous or partially crystalline salts
AUC(0-t) ([5]; rat, 10 mg/kg, dose equiv. 10 mg/kg): 60 µg·h/mL
AUC(0-t) ([5]; rat, 248 mg/kg, dose equiv. 248 mg/kg): 745 µg·h/mL
AUC(0-t) ([5]; rat, 495 mg/kg, dose equiv. 495 mg/kg): 1000 µg·h/mL
AUC(0-tlast)norm ([5]; dose equiv. 10 mg/kg): 6 kg·h/L
AUC(0-tlast) ([5]; dose equiv. 30 mg/kg): 146 µg·h/mL
AUC(0-tlast)norm ([5]; dose equiv. 30 mg/kg): 4.8 kg·h/L
AUC(0-tlast) ([5]; dose equiv. 100 mg/kg): 447 µg·h/mL
AUC(0-tlast)norm ([5]; dose equiv. 100 mg/kg): 4.5 kg·h/L
AUC(0-tlast)norm ([5]; dose equiv. 248 mg/kg): 3 kg·h/L
AUC(0-tlast)norm ([5]; dose equiv. 495 mg/kg): 2 kg·h/L
Increase of plasma exposure of free acid with dose ([5]; rat, doses above 30 mg/kg, listed as cholinate salt): dose-proportional increase of exposure up to a dose of approximately 100 mg/kg
Thermodynamic stability of the solid form [6]: thermodynamically stable at room temperature and at least up to 35 °C
